Measured values from patent US7153822B2, “Compositions and methods for modulating connexin hemichannels” (Wyeth, priority 2002, dated 2006).
Square brackets hold non-standard residues; d marks the D form. Peptide text beside a SMILES is read from it. dHyp = O=C(O)[C@H]1C[C@H](O)CN1

Tests used:
connexin hemi-channels [1] = assay: calcein dye uptake in cardiomyocytes under ischemia mimicking solution (Example 4); assay type: cell-based, rat; details: 10 nM co-incubation during metabolic stress (stress alone 38% higher), n=6
Experimental: 1. Cell culture: Briefly, the hearts from 20 neonate rats (age 1–2 days) were excised aseptically. The ventricles were isolated and cut into 4–6 pieces, which are digested in several steps in a Hanks buffered saline with trypsin and DNAse. The cells were then centrifuged and resuspended in MEM with 5% FCS. To eliminate non-muscle cells the suspension was preplated in petri dishes for 30 minutes at 37° C. The cells in suspesion were then seeded onto collagen coated coverslips.
2. Dye-uptake: The cover slips with cardiomyocytes were incubated for 30 minutes with control solution (PBS) containing in mM: Na^+ 152, K^+ 4.2, Cl^− 141.5, PO4^3− 9.5, Ca^2+ 0.9, Mg^2+ 0.5, glucose 6, pH 7.4. or an ischmia mimicking (injury) solution (as control only K^+ 8.2, no glucose, 10 mM deoxy-glucose, pH 6.5), both solutions containing 200 μM calcein. Then the cells were washed for 10 minutes with control solution.
The cover slips were mounted in an open chamber on the stage of an inverted microscope. Ten random fields were chosen and from each field three cells were chosen under conventional light microscopy. Then the cells were excited by 480 nm light and the fluorescence emmision measured at 510 nm, where the emission intensity is a measure of dye-uptake.
The effect of the compound 1 on dye-uptake was investigated under two conditions: […]

connexin hemi-channels [2] = assay: calcein dye uptake in cardiomyocytes under stress buffer (Example 6); assay type: cell-based, rat
Experimental: 1. Methods Ventricular myocytes were isolated from neonate rats by trypsin digestion and plated onto collagen-coated cover slips. After four days the myocytes formed confluent and synchronously beating sheets of cells. To measure dye uptake, cells were incubated in buffer containing 200 μM calcein for 30 minutes at room temperature. Then coverslips were thoroughly washed with control buffer and mounted in an open bath chamber and superfused with control buffer (RT). Cells were excited with 480 nm light by means of a Xenon lamp and a monochromator. Images of the fluorescence emitted at 510 nm were collected by a cooled CCD camera (Sensicam). Excitation control and image acquisition was controlled using Imaging workbench (Axon).
Under light microscopy three regions were placed over cardiomyocytes in an image. Then average fluorescence intensity was measured, and the procedure was repeated until 30 regions in 10 images had been measured. The average of these measurements were used as value for the given experimental condition, that is n=1. In each series one control incubation was performed and all experimental values are given as relative to this value.
(§1) Solutions: Control buffer (in mM): NaCl 136, KCl 4, MgCl2 0.8, CaCl2 1.8 HEPES 5, MES 5, Glucose 6, pH 7.3 Stress buffer (in mM): NaCl 136, KCl 8, MgCl2 0.8, CaCl2 1.8 HEPES 5, MES 5, Deoxy-glucose 10, pH 6.2

Ventricular myocytes = assay: volume measurements in cardiomyocytes during metabolic inhibition; assay type: cell-based, rat; details: 0.1 nM in stress medium, six experiments (stress alone 1.06±0.02, control 0.94±0.04)
Experimental: 1. Methods: Ventricular myocytes were isolated from neonate rats by trypsin digestion and plated onto collagen-coated cover slips. After four days the myocytes formed confluent and synchronously beating sheets of cells. To measure cell volume cells were loaded with calcein-AM (5 μM in control buffer) for 15 minutes at 37° C. and the cover slips mounted in an open bath chamber. The following experiments were performed at room temperature. Using a Leica laser confocal microscope, an optical cross-section was performed every 20 seconds throughout the duration of the experiments.
The optical cross-sections were analyzed using Metamorph (Universal Imaging). The area of the cell was determined as the area of pixels with fluorescence intensities higher than a threshold value chosen to minimize background induced fluctuations. Data are presented as relative volumes by dividing each value by the average area under control conditions (the last measurement before metabolic stress).
as §1

[3] = tested on: neonatal rat ventricular cardiomyocytes; details: cited from earlier work
[4] = rat, in vivo, sc
Experimental: (§2) Compound 1 was delivered by an osmotic minipump (Alzet model 2ML4) that was inserted into the intraperitoneal (i.p.) cavity immediately prior to induction of the myocardial infarction. The pump was filled with vehicle (isotonic saline) or Compound 1 and primed at 37° C. for 24 hours prior to the operation. In order to ensure that the therapeutic plasma concentration was obtained already at the time of infarction, a loading dose of Compound 1 was given s.c. prior to ligation of the LAD.
(§3) After administration of the s.c. loading dose of Compound 1 and after i.p. insertion of the osmotic minipump, a left thoracotomy was performed, and the left anterior decending artery was ligated using a 6-0 silk suture. The thorax is closed in layers, and a negative pressure was induced in the pleural cavity to unfold the lungs. Sham-operated animals were subjected to the same procedure without ligation of the LAD. Postoperatively, the animal were allowed to recover in a heated cabinet at 30° C. with 50% oxygen until the next morning. To prevent dehydration during the recovery period, the rat was given 5 ml 5% glucose s.c. immediately after completion of surgery and another 5 ml 5% glucose at 4 p.m. To relieve postoperative pain, the rat was treated with buprenorphine (20 μg/100 g s.c. b.i.d.) and meloxicam (0.1 mg/100 g s.c. once daily) for three days after the myocardial infarction. […] Plasma concentrations of Compound 1 were measured by mass spectrometry following solid phase extraction.

[5] = tested on: human osteoblast cultures; details: dye transfer after Lucifer Yellow injection; cited from earlier work
in vivo = details: rat, ip
Experimental: as §2, §3

SMILES: CC(=O)N[C@H](Cc1ccc(O)cc1)C(=O)N1CCC[C@@H]1C(=O)N1C[C@@H](O)C[C@@H]1C(=O)NCC(=O)N[C@H](C)C(=O)NCC(N)=O [Compound 1, Ac-D-Tyr-D-Pro-D-4Hyp-Gly-D-Ala-Gly-NH2] (Ac-[dY][dP][dHyp]G[dA]G-NH2)
- calcein dye uptake above control cells (connexin hemi-channels [1]): 5%
- EC50 (connexin hemi-channels [2]; 0.1 pM to 10 nM, sigmoidal function, read-out: ED50 for reduction of stress-induced calcein uptake): 3.3 ± 5.3 pM
- average fluorescence intensity during maximal inhibition, above control (connexin hemi-channels [2]; stress buffer (stress alone 36.2±4.18% higher)): 6.9±1.7 % above control
- effect on uptake of calcein (connexin hemi-channels [2]; stress, 0.1 pM to 10 nM): dose-dependently reduced the uptake of calcein
- average relative volume during stress (Ventricular myocytes): 0.93±0.05
- noradrenalin-induced PI turnover, level relative to normal ([3]; during oxygen and glucose deprivation (untreated app. 50%)): ~90 % of the normal level
- noradrenalin-induced level of PI turnover ([3]; normal atmospheric and nutritional conditions): does not alter
- time to steady-state plasma level [4]: 3 min
- reversal of hypoxia-induced decrease of calcium wave propagation [5]: completely reversed
- level at time molar at 504 h (in vivo; 11 pmol/kg/min): 1.7 ± 0.4 nM
- level at time molar at 504 h (in vivo; 110 pmol/kg/min): 5.7 ± 0.4 nM
- level at time molar at 504 h (in vivo; 1100 pmol/kg/min): 93.7 ± 12.3 nM
